Experiments:
humans = settings: in vivo; cited from earlier work
dogs = settings: dog, in vivo; cited from earlier work
mice = settings: mouse, in vivo; cited from earlier work
[1] = target: T1, aldose reductase (human recombinant, expressed in SF 9 cells) (Homo sapiens, UniProt P15121); test: Aldose reductase assay, reduction of glucose to sorbitol (NADPH oxidation, absorbance at 340 nm); format: biochemical; settings: Lineweaver Burk plots nearly parallel; glucose and glyceraldehyde substrates
T1 construct: host or cells: SF 9 cells
Procedure: Aldose reductase assays were as described in Nishimura C., Yamaoka T., Mizutani M., Yamashita K., Akera T., Tanimoto T., Purification And Characterization Of The Recombinant Human Aldose Reductase Expressed In Baculovirus System, Biochem. Biophys. Acta, Jun. 24, 1991; 1078(2):171-8.
Briefly, Dimesna (0-20 μM) was incubated at 37° C. with aldose reductase (0.0016 units, human recombinant, expressed in SF 9 cells) and NADPH (0.15 mM) in sodium phosphate buffer (100 mM, pH 6.2). To initiate assays, glucose (10-150 mM) was added to reactions and the decrease in absorbance at 340 nm (oxidation of NADPH) was monitored. Assays were run in duplicate or triplicate. Slopes were calculated using Varian-Cary software package 2.0 and averaged. In all cases errors were 4% or less. Lineweaver Burk analysis (Enzyme Kinetics, version 1.61) was used to calculate inhibition constants.

O=S(=O)([O-])CCSSCCS(=O)(=O)[O-].[Na+].[Na+]
Adverse effects after administration to humans (humans): no adverse effects
Adverse effects after intravenous administration (dogs): no adverse effects
Adverse effects after intravenous administration (mice): no adverse effects
Mode of inhibition of the aldose reductase reaction [1]: uncompetitive inhibition
